Where “and” joins values, the source holds several entries; their conditions need not be identical. Identical values can stand only once. Results filed as inconclusive are left out. Calls of active or inactive are those of the source.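 Rule for the calls: active = fitted half-maximal concentration of signal decrease at or below twice the sample's top tested concentration; inconclusive = flat curve between -70 and -30 percent, or poor fit; inactive = flat within 30 percent, signal rise, or potency above limit.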

Broadly, the AC50 is the concentration giving half of the maximal activity seen.

This experiment has as its target T. gondii ME49Luc in IFN-y HeLa, luciferase, 72 h. Kind of experiment: inhibitors of Toxoplasma growth in IFN-γ-primed HeLa – cell-based, ME49Luc, luciferase, 72 h, dose response (AID 1259418).
`Cc1ccc(S(=O)(=O)N2CCC3(CC2)NCCN=C3NC2CCCCCC2)cc1C`: the AC50 was 18.6 µM.
With `COc1cccc(-c2ccc3c(c2)[C@H]2[C@H](CCN2S(=O)(=O)c2ccccc2F)[C@@H](CO)N3)c1` the figure was 25 µM and 6.64 µM; with `O=C(O)CC1CCC(c2ccc(-c3ccc(Nc4ccc(C(F)(F)F)nc4)cn3)cc2)CC1` (stereo not drawn), 19 µM.
Then `Cc1nc(OCC(=O)Nc2ccc(Cl)cc2)c2ccccc2n1`, with > 39 µM (inactive); and `Cc1oc(-c2cccc(Cl)c2)nc1CN1CCN(C(=O)Nc2ccc(F)cc2)CC1`, with 24.1 µM.
Consider `COc1ccc(-n2c(C)c([N+](=O)[O-])c3ccc(O)cc32)cc1`, for which the AC50 was 1.41 µM.
Then `CC(C)n1c(C(=O)Nc2cccc(F)c2)nc2c1CCN(Cc1ccccc1)C2`, with 9.4 µM; and `C1=C(c2ccccc2)CC(c2ccccc2)=NN=C1c1ccccc1`, with 15.6 µM; and `CCOc1ccc(N(Cc2nc(-c3ccc(OC)cc3)oc2C)S(=O)(=O)c2ccccc2)cc1`, with 3.96 µM and 3.81 µM.
Take `CC(C)(C)NC(=O)[C@@H]1CC2CCCCC2CN1C[C@@H](O)[C@H](Cc1ccccc1)NC(=O)[C@H](CC(N)=O)NC(=O)c1ccc2ccccc2n1` (stereo partly drawn): the AC50 was 17.8 µM.
Then `Cc1oc(-c2cccc(Cl)c2)nc1CN(c1ccccc1)S(=O)(=O)c1cccs1`, with 10.4 µM; and `O=C(CCC1N=C2c3ccccc3N=C(SCc3cc(=O)n4cc(Cl)ccc4n3)N2C1=O)NC1CCCCC1` (stereo not drawn), with > 39 µM (inactive).
Then `COc1ccc(-c2nc(Nc3ccc(C)cc3)c3ccccc3n2)cc1`, with 19.1 µM; and `CC(C)(C)c1ccc(CSC2=Nc3ccccc3C3=NC(CC(=O)NCc4ccco4)C(=O)N23)cc1` (stereo not drawn), with 27.4 µM; and `COc1ccc(-c2nc(NC(C)C)c3ccccc3n2)cc1`, with > 39 µM (inactive).
With `O=C1CCc2cc(S(=O)(=O)NC(c3ccccc3)c3ccccc3)cc3c2N1CCC3` the figure was 12.8 µM; with `O=C(NCCc1csc(-c2ccccc2)n1)C1CCN(C(=O)c2ccccc2Br)CC1`, 24.6 µM; with `CCc1ccc(S(=O)(=O)N2CCC3(CCCN(Cc4c(C)noc4C)C3)C2)cc1` (stereo not drawn), 22.9 µM.
Regarding `COc1cccc(S(=O)(=O)N2CCCCN3[C@H](CO)[C@@H](c4ccc(C#CCC(C)C)cc4)[C@H]3C2)c1`, the AC50 was 24.9 µM and 10.3 µM and 9.5 µM.
With `OC[C@H]1Nc2ccc(-c3cccc(F)c3)cc2[C@@H]2[C@H]1CCN2Cc1ccc(F)cc1` the figure was 20 µM; with `COc1ccccc1-c1nc(CN(c2ccccc2OC)S(=O)(=O)c2ccc(C)cc2)c(C)o1`, 12.4 µM; with `CCCNC(=O)[C@@H]1[C@@H](CO)[C@@H]2Cn3c(ccc(/C=C/c4ccccc4)c3=O)[C@@H]2N1CC1CC1`, 18.5 µM.
For the compound `COc1ccccc1N(Cc1nc(-c2ccc(C)cc2)oc1C)S(=O)(=O)c1ccc(C)cc1`, the AC50 was 10.3 µM.
For `COCCC(=O)C1Cc2nc(-c3ccccc3)sc2N1CC1CC1` (stereo not drawn), the AC50 was 27.2 µM and 15.5 µM.
As to `CC(C)C#Cc1ccc([C@@H]2[C@H](CO)N3C(=O)CN(S(=O)(=O)c4ccccc4)C[C@@H]23)cc1`, the AC50 was > 39 µM (inactive).
With `Cc1nc(OCC(=O)Nc2ccc(Cl)c(Cl)c2)c2ccccc2n1`, the AC50 was > 39 µM (inactive).
As to `O=c1c(O)c(-c2ccc(O)c(O)c2)oc2cc(O)cc(O)c12`, the AC50 is 17.6 µM.
For the compound `O=S(=O)(c1ccc2c(c1)CCCC2)N1CCC2(CC1)NCCN=C2NCc1ccc2c(c1)OCO2`, the AC50 was 11.1 µM.
On to `CCOc1ccc(-c2nc(CN(c3ccccc3OC)S(=O)(=O)c3ccccc3)c(C)o2)cc1`, for which the AC50 was 8.3 µM.
Turning to `CCOC(=O)c1ccc(NC(=O)N2CCN(Cc3nc(-c4ccc(C)cc4)oc3C)CC2)cc1`, the AC50 was 37.2 µM.
As for `CC/C(=C(\c1ccccc1)c1ccc(OCCN(C)C)cc1)c1ccccc1`, the AC50 was 35.2 µM.
Then `Cc1ccc(S(=O)(=O)N2CCC3(CC2)NCCN=C3NCc2ccc(F)c(Cl)c2)cc1C`, with 16.5 µM; and `CCc1nc(OCC(=O)Nc2ccc(Cl)cc2Cl)c2ccccc2n1`, with 30 µM.
